We go through 13 compounds from patent publication EP1628135A1, “Method for detecting medically relevant conditions in a solubilized LBC sample” (MTM Laboratories AG, priority 2004, dated 2006).

Structures are written as SMILES. Like-named read-outs stand apart in the source and are kept apart here. Where a SMILES comes first, the peptide text is derived from it. [ ]: non-standard residue; d: D form. The star is where a group is joined. Sta = CC(C)C[C@H](N)[C@@H](O)CC(=O)O; Isovaleryl = CC(C)CC(=O)*

Series [1] concerns p16^INK4a. Description: Stabilization of p16INK4a by proteinase inhibitors in mtm lysis medium.
Series [2] can be described thus: Stability of proteinase inhibitors in water.
The nature of series [3]: Solubility of proteinase inhibitors in water.
The mark [4] stands for this setting: inhibitor at the concentration listed in Table 2.

For `N=C(N)c1ccccc1` [Benzamidine], the “p16^INK4a stabilization in mtm Lysis medium” value (“p16^INK4a stabilization” below) in series [1] (setting [4]) is “no”. Also, the stability in water result in series [2] was “good”. Besides, in series [3], the Solubility in water result is recorded as “good”.

As for `CC(C)C[C@H](NC(=O)[C@@H](O)[C@H](N)Cc1ccccc1)C(=O)O` [Bestatin], in series [1] (setting [4]), the “p16^INK4a stabilization” value is on record as “no”. In addition, in series [2], the stability in water result is “good”. For the same compound, in series [3], the Solubility in water entry is “good”.

Regarding `CCCC[C@@H](C=O)NC(=O)[C@H](CC(C)C)NC(=O)OCc1ccccc1` [Calpeptin], the “p16^INK4a stabilization” value in series [1] (setting [4]) is recorded as “no”. In series [2], the stability in water entry was “good”. Besides, the Solubility in water entry in series [3] is reported as “good”.

As to `CC(C)C[C@H](NC(=O)[C@H]1O[C@@H]1C(=O)O)C(=O)NCCCCN=C(N)N` [E-64], in series [1] (setting [4]), the “p16^INK4a stabilization” value is “no”. In series [2], the stability in water entry is recorded as “good”. For the same compound, the Solubility in water entry in series [3] is “good”.

On to `O=C(O)CN(CCN(CC(=O)O)CC(=O)O)CC(=O)O` [EDTA], for which, in series [1], the “p16^INK4a stabilization” value is “no”.

For `CCOC(=O)[C@H]1O[C@@H]1C(=O)N[C@@H](CC(C)C)C(=O)NCCC(C)C` [EST], the “p16^INK4a stabilization” value in series [1] (setting [4]) was “no”. Further, the stability in water entry in series [2] was “poor”. Besides, the Solubility in water entry in series [3] was “bad”.

As for `CC(C)C[C@H](NC(=O)N[C@H](C(=O)N[C@@H](CCC(N)=O)C(=O)N[C@@H](C)C=O)[C@@H]1CCNC(=N)N1)C(=O)O` [Elastatinal], in series [1] (setting [4]), the “p16^INK4a stabilization” value was “no”. In series [2], the stability in water entry is given as “good”. For the same compound, the Solubility in water result in series [3] is given as “poor”.

Turning to `CC(=O)N[C@@H](CC(C)C)C(=O)N[C@@H](CC(C)C)C(=O)N[C@H](C=O)CCCNC(=N)N` [Leupeptin], the “p16^INK4a stabilization” value in series [1] (setting [4]) is “no”. Besides, the stability in water result in series [2] is “good”. Further, the Solubility in water result in series [3] is reported as “good”.

As for `CCOC(=O)[C@@H]1O[C@H]1C(=O)NC(CC(C)C)C(=O)N1CCN(Cc2ccc(OC)c(OC)c2OC)CC1.CCOC(=O)[C@@H]1O[C@H]1C(=O)NC(CC(C)C)C(=O)N1CCN(Cc2ccc(OC)c(OC)c2OC)CC1.O=S(=O)(O)O` (stereo partly shown) [NCO-700], in series [1] (setting [4]), the “p16^INK4a stabilization” value is on record as “no”. Besides, the stability in water entry in series [2] is “poor”. In addition, the Solubility in water result in series [3] is listed as “poor”.

As for `O=S(=O)(F)Cc1ccccc1` [PMSF], the “p16^INK4a stabilization” value in series [1] (setting [4]) is on record as “yes”.

Regarding `NCCc1ccc(S(=O)(=O)F)cc1` [Pefabloc= AEBSF, AEBSF], the “p16^INK4a stabilization” value in series [1] (setting [4]) is “yes”.

For the compound `CC(C)CC(=O)N[C@H](C(=O)N[C@H](C(=O)N[C@@H](CC(C)C)[C@@H](O)CC(=O)N[C@@H](C)C(=O)N[C@@H](CC(C)C)[C@@H](O)CC(=O)O)C(C)C)C(C)C` [Pepstatin A] (Isovaleryl-VV[Sta]A[Sta]-OH), the “p16^INK4a stabilization” value in series [1] (setting [4]) is on record as “no”.

As to `c1cnc2c(c1)ccc1cccnc12` [o-Phenanthroline], the “p16^INK4a stabilization” value in series [1] (setting [4]) was “no”. For the same compound, the stability in water result in series [2] is “poor”. Also, in series [3], the Solubility in water result was “bad”.
